Assays:
[1] = test system: Matrix Metalloprotease 9 (MMP-9) activity in HTR8/SVneo cells; assay: TNF-α-induced MMP-9 activity (zymography); type: cell-based; settings: for reduction of TNFα-induced MMP-9 activity compared to stimulated controls: MPA pre-treatment
Excerpt: FIGS. 4A-4C show the effect of knocking down PGRMC1 expression on the efficacy of medroxyprogesterone acetate (MPA) pretreatment in HTR8/SVneo cells.
(§1) Progesterone treatment also blunted TNF α-mediated induction of metalloproteinase 9 (MMP-9) activity (data not shown).
The inhibitory effect of MPA pre-treatment on TNFα-induced activity was diminished when compared to cells treated with the scramble siRNA group (see FIGS. 4B&4C). […] However, in the PGRMC1 siRNA group this effect was lost with MPA pre-treatment reducing MMP-9 activity to a lesser degree when compared with stimulated controls (15%, p=0.100). Both the unstimulated (vehicle) control and the MPA groups are shown in the zymogram. The relative MMP-9 activity represents activity in excess of baseline for each experimental group. The unstimulated (vehicle) control only is represented graphically for both siRNA treatments. Experiments were replicated on 5 separate occasions. Data are mean+standard error of the mean.

HTR8/Sv cells = assay: Calcimycin-induced apoptotic cell death, CELLTITER 96 Aqueous Non-Radioactive Cell Proliferation Assay; type: cell-based; settings: pretreatment of HTR8/Sv cells; FIG. 1
Excerpt: FIGS. 1A-1B are A) Western blot and B) graph showing calcium-induced cytrotrophoblast apoptotic cell death reduction by progesterone (R5020) pretreatment.
as §1

caspase 3 cleavage = assay: Caspase 3 cleavage following treatment with calcimycin; type: cell-based; settings: data not shown
PGRMC1 = PGRMC1 (Homo sapiens, UniProt O00264); settings: cited from earlier work
[2] = women with a history of spontaneous preterm birth; weekly intramuscular injection; cited from earlier work
[3] = women at risk based on shortened cervical length; vaginal; cited from earlier work

Sequence of PGRMC1 (O00264 whole entry): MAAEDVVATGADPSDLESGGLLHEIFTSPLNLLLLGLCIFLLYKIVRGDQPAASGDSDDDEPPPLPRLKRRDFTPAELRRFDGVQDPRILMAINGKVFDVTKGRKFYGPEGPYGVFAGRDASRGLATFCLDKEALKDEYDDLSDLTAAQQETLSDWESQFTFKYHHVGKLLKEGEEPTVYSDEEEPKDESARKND

CC(=O)O[C@]1(C(C)=O)CC[C@H]2[C@@H]3C[C@H](C)C4=CC(=O)CC[C@]4(C)[C@H]3CC[C@@]21C [MPA, medroxyprogesterone acetate]
reduction of TNFα-induced MMP-9 activity compared to stimulated controls ([1]; PGRMC1 siRNA group, p=0.100): 15%
reduction of TNFα-induced MMP-9 activity compared to stimulated controls ([1]; scramble siRNA group, p<0.008): 45%

CCC(=O)[C@@]1(C)CC[C@H]2[C@@H]3CCC4=CC(=O)CCC4=C3CC[C@@]21C [R5020]
protection against calcium-ionophore calcimycin-induced apoptotic cell death (HTR8/Sv cells): protected the cells
caspase 3 cleavage following treatment with calcimycin (caspase 3 cleavage): lower caspase 3 cleavage
binding to PGRMC1 (PGRMC1): high binding

CCCCCC(=O)O[C@]1(C(C)=O)CC[C@H]2[C@@H]3CCC4=CC(=O)CC[C@]4(C)[C@H]3CC[C@@]21C [17-OHPC, 17 alpha hydroxyprogesterone caproate]
reduction in preterm birth rates [2]: 35%

CC(=O)[C@H]1CC[C@H]2[C@@H]3CCC4=CC(=O)CC[C@]4(C)[C@H]3CC[C@]12C [Progesterone, progesterone]
TNF α-mediated induction of MMP-9 activity ([1]; data not shown): blunted
reduction of the risk of preterm birth [3]: 45%

— patent publication US20160003837A1, “BIOMARKERS FOR THE PREDICTION OF PRETERM BIRTH” (DUKE UNIVERSITY, priority 2013, published 2016)
